Assays:
[1] = biological target: T1, Cholecystokinin receptor type A (Rattus norvegicus, UniProt P30551); assay: Compound was evaluated for the inhibition of […] I-CCK-8 binding at Cholecystokinin type A receptor in rat pancreatic membranes; format: cell membranes, Membrane
T1 sequence (P30551 whole entry): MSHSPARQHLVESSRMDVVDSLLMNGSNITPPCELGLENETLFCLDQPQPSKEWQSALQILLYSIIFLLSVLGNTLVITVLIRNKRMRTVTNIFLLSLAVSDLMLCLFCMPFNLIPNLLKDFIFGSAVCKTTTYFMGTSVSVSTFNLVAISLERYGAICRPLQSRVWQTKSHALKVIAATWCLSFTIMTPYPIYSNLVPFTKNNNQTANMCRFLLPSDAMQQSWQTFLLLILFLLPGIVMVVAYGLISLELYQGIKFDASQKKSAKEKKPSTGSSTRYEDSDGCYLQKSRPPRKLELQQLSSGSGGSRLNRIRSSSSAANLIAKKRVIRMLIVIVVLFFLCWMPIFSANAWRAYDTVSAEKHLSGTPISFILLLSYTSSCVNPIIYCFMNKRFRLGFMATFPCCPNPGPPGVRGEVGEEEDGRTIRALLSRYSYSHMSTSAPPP

[2] = Compound was evaluated for the inhibition of […] I-CCK-8 binding at Cholecystokinin type B receptor on guinea pig cerebral cortical membranes
[3] = biological target: Cholecystokinin receptor (Homo sapiens) (UniProt P32239+P32238); assay: Ratio of inhibitory activity of CCK-A to CCK-B was reported.; format: protein assay
[4] = biological target: T2, Cholecystokinin receptor type A (Rattus norvegicus) (UniProt P30551); assay: Compound was evaluated for the inhibition of […] I-CCK-8 binding at Cholecystokinin type A receptor in rat pancreatic membranes at 10 e -8 M; format: cell membranes; conditions: Membrane
T2 sequence (whole entry): T1 sequence (P30551 whole entry)

Cholecystokinin receptor (Homo sapiens), sequence (P32238 whole entry, looked up): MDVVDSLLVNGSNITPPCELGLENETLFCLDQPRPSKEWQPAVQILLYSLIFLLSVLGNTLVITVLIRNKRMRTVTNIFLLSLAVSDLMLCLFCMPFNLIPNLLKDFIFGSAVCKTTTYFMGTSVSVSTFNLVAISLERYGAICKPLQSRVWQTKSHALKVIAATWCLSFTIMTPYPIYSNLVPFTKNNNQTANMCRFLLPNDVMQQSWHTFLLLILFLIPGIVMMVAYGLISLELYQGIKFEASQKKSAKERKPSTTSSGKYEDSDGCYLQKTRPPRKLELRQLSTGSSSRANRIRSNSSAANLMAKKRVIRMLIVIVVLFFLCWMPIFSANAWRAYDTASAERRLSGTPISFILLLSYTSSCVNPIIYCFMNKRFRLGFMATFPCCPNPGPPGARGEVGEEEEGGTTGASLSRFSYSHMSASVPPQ
Cholecystokinin receptor (Homo sapiens), sequence (P32239 whole entry, looked up): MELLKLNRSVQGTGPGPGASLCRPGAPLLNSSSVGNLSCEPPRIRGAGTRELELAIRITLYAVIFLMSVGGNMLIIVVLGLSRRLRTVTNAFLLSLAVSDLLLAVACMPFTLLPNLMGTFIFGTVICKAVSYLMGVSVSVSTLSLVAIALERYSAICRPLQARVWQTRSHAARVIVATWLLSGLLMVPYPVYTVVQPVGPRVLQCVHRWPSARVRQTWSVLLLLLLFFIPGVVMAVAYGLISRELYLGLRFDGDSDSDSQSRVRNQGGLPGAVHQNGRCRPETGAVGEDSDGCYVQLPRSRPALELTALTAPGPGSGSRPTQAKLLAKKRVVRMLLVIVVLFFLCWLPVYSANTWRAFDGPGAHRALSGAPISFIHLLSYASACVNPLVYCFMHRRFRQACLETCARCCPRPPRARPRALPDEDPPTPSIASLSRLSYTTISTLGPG

| SMILES | IC50 [1] | Ratio [3] | also measured |
| --- | --- | --- | --- |
| O=C(Nc1cccc(-c2nnn[nH]2)c1)NC1N=C(c2ccccc2F)c2cccc(Cl)c2N(CC(=O)N2CC3CCC(CC3)C2)C1=O (centres undefined) | 13 nM | – | – |
| Cc1cccc2c1N(CC(=O)N1CC3CCC(CC3)C1)C(=O)C(NC(=O)Nc1cccc(-c3nn[nH]n3)c1)N=C2c1ccccc1F (centres undefined) | – | 21 | IC50 [2]: 0.68 nM |
| O=C(Nc1cccc(-c2nn[nH]n2)c1)NC1N=C(c2ccccc2F)c2cccc(Cl)c2N(CC(=O)N2CC3CCC(CC3)C2)C1=O (centres undefined) | – | 20 | – |
| O=C(Nc1cccc(-c2nnn[nH]2)c1)NC1N=C(c2ccccc2F)c2ccccc2N(CC(=O)N2CC3CCC(CC3)C2)C1=O (centres undefined) | 62 nM | – | – |
| CCc1cccc2c1N(CC(=O)N1CC3CCC(CC3)C1)C(=O)C(NC(=O)Nc1cccc(-c3nnn[nH]3)c1)N=C2c1ccccc1F (centres undefined) | 18 nM | – | – |
| CC(C)c1cccc2c1N(CC(=O)N1CC3CCC(CC3)C1)C(=O)C(NC(=O)Nc1cccc(-c3nn[nH]n3)c1)N=C2c1ccccc1F (centres undefined) | – | – | inhibition [4]: 12.2% |
| O=C(Nc1cccc(-c2nn[nH]n2)c1)NC1N=C(c2ccccc2F)c2ccccc2N(CC(=O)N2CC3CCC(CC3)C2)C1=O (centres undefined) | – | 710 | – |
| CCc1cccc2c1N(CC(=O)N1CC3CCC(CC3)C1)C(=O)C(NC(=O)Nc1cccc(-c3nn[nH]n3)c1)N=C2c1ccccc1F (centres undefined) | – | 22 | – |
